One compound from ChEMBL document CHEMBL3112424, “Discovery and optimization of pyrimidone indoline amide PI3Kβ inhibitors for the treatment of phosphatase and tensin homologue (PTEN)-deficient cancers” (J Med Chem, 2014) can be followed below.

≈ marks a conversion by molar mass, not a printed value. Bounds are passed on as bounds.

Series [1] in a line: Metabolic stability in mouse liver microsomes at 5 uM after 20 mins. The following applies: liver microsomes. In general terms: Liver microsomes are a subcellular fraction often used to study metabolism.
A short description of series [2]: Plasma concentration in SCID mouse xenografted with PTEN-deficient human PC3 cells at 100 mg/kg, po after 24 hrs. Set-up: dose 100 mg/kg, route oral. It is filed as ADME, organism-based, PC-3.
Series [3] has as its system Mus musculus. Kind of series: In vivo inhibition of PI3Kbeta in tumor of po dosed SCID mouse xenografted with BRAF-V600E/PTEN-deficient human UACC62 cells assessed as inhibition of Akt phosphorylation at S473. It is filed as functional, organism-based. The following applies: UACC-62. (In general: Xenograft models place foreign cells or tissue in a host animal.)
In series [4] the target is Phosphatidylinositol 4,5-bisphosphate 3-kinase catalytic subunit gamma isoform (Homo sapiens, UniProt P48736). Kind of series: Inhibition of C-terminal ploy-His-tagged human PI3Kgamma expressed in baculovirus-infected sf9 cells using PI(4,5)P2 as substrate after 15 mins by HTRF assay. On the technique in general: TR-FRET usually uses a lanthanide donor and a delayed reading to cut background.
Sequence of Phosphatidylinositol 4,5-bisphosphate 3-kinase catalytic subunit gamma isoform (P48736 whole entry, canonical isoform): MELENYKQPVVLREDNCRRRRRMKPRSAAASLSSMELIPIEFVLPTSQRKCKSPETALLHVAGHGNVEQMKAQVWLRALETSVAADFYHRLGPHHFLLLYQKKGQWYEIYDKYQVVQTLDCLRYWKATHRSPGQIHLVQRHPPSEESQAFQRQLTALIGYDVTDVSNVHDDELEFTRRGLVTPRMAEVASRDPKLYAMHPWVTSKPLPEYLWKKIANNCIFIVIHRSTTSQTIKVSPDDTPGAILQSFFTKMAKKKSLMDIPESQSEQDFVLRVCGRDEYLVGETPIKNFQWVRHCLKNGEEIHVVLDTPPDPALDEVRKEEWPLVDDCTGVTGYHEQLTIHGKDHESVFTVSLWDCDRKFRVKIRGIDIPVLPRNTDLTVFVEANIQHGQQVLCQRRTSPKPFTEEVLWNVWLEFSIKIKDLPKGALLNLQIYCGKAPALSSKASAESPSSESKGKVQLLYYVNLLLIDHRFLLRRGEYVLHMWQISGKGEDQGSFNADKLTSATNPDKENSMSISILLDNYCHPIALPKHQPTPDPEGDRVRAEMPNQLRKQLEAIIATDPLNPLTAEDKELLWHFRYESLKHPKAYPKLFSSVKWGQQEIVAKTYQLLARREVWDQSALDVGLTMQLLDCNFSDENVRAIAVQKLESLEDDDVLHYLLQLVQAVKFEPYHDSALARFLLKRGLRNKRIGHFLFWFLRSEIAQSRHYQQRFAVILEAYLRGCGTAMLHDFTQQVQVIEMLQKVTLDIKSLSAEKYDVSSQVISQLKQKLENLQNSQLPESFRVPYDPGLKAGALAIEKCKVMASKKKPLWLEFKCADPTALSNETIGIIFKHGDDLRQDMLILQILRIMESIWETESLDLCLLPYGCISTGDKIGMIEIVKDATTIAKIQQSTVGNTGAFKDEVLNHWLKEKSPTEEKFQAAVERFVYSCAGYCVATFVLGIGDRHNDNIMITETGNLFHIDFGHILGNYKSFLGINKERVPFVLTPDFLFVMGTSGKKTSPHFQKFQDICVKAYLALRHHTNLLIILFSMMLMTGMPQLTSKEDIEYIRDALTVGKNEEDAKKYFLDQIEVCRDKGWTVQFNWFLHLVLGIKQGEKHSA

Series [5] in a line: AUC (infinity) in Beagle dog at 3 mg/kg, iv. In kind it is ADME, organism-based, Canis lupus familiaris. Set-up: time infinity, dose 3 mg/kg, route intravenous. The settings on record: plasma.
Series [6] can be described thus: AUC (infinity) in Beagle dog at 10 mg/kg, po. The settings on record: plasma. Set-up: time infinity, dose 10 mg/kg, route oral. In kind it is ADME, organism-based, Canis lupus familiaris.
For series [7], the target named is T1, Phosphatidylinositol 3-kinase C2 domain-containing subunit gamma (Homo sapiens, UniProt O75747).
T1 sequence (O75747 whole entry): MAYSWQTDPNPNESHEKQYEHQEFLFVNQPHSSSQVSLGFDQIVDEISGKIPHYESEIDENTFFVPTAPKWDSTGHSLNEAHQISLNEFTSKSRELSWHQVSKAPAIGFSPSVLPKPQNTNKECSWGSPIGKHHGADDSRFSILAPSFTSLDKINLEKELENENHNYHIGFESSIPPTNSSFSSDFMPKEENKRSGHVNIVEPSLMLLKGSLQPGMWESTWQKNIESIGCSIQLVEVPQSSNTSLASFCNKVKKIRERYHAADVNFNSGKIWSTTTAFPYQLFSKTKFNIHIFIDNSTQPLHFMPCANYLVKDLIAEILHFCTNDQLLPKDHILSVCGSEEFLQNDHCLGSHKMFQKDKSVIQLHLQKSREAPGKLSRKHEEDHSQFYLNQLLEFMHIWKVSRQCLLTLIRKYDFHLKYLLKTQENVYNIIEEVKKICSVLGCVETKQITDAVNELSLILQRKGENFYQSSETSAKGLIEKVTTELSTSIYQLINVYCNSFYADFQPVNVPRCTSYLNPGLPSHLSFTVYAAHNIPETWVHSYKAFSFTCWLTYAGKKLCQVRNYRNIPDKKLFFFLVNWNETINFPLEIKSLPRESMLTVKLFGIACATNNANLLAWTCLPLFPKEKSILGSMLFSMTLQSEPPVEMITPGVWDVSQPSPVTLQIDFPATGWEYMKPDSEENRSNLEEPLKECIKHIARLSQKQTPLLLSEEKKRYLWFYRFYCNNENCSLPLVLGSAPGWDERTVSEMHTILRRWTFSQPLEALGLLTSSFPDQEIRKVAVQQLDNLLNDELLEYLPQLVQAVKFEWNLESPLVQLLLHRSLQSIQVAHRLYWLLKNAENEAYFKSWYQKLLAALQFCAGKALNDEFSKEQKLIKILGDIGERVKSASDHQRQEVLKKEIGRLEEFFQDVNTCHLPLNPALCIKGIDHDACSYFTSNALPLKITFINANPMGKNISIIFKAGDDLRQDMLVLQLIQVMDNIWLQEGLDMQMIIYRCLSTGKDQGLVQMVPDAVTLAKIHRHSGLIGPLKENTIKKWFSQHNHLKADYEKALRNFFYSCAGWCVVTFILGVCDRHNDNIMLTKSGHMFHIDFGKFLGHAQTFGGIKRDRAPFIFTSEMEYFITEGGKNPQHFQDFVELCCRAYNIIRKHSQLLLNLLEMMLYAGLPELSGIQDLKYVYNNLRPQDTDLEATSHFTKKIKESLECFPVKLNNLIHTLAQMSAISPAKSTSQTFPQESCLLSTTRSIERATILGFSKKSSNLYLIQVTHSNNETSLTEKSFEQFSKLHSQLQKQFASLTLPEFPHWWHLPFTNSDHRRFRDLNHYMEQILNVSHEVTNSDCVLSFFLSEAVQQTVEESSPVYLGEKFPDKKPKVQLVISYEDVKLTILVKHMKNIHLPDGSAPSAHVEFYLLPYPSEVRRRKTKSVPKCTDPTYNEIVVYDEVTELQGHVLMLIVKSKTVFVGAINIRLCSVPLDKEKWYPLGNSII
Kind of series: Inhibition of PI3KC2gamma (unknown origin).

In series [8] the test system is Liver microsome. The series can be described thus: Metabolic stability in dog liver microsomes. In kind it is ADME, Canis lupus familiaris.
The test system of series [9] is PC-3. The series can be described thus: Antitumor activity against PTEN-deficient human PC3 cells xenografted in SCID mouse assessed as tumor growth inhibition at 150 mg/kg, po bid measured on day 31. In kind it is functional.
The nature of series [10]: Plasma concentration in SCID mouse xenografted with PTEN-deficient human PC3 cells at 100 mg/kg, po after 16 hrs. It is filed as ADME, organism-based, PC-3. Set-up: dose 100 mg/kg, route oral.
A short description of series [11]: Oral bioavailability in nude rat at 10 mg/kg. It is filed as ADME, organism-based. The following applies: in vivo.
Series [12] deals with T2, Phosphatidylinositol 4,5-bisphosphate 3-kinase catalytic subunit beta isoform (Homo sapiens, UniProt P42338). The following applies: UACC-62.
Target sequence in this assay (P42338 whole entry, looked up, canonical isoform): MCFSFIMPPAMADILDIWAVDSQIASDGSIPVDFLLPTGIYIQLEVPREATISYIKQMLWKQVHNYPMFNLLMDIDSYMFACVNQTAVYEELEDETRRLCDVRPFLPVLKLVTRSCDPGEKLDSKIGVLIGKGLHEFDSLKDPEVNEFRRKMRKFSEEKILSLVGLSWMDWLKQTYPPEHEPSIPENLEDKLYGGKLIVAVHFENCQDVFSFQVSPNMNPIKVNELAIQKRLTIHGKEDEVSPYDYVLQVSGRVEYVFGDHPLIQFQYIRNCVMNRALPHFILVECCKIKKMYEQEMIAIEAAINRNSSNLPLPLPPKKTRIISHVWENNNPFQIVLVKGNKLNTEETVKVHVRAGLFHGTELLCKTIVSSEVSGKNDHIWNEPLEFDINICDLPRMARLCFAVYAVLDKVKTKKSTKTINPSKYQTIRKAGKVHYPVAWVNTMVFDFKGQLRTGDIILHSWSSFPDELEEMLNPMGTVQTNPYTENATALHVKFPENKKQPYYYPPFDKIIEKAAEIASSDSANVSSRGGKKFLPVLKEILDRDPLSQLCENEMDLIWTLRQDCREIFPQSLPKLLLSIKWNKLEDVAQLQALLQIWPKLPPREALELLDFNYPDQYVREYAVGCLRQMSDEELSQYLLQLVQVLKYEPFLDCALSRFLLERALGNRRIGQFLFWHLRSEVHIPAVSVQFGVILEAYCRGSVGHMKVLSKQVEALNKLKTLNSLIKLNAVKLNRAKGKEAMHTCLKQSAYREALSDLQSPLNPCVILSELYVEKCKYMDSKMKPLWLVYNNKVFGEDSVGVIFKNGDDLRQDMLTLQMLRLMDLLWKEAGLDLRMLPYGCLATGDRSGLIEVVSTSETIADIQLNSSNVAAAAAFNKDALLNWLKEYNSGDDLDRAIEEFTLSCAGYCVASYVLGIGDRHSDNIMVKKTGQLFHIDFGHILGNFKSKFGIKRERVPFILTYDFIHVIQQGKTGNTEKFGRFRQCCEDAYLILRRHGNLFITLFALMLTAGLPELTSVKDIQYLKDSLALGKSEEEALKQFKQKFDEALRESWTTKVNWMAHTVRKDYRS
Description: Inhibition of PI3Kbeta-mediated Akt phosphorylation at S473 in BRAF-V600E/PTEN-deficient human UACC62 cells
Series [13] in a line: Metabolic stability in human liver microsomes at 5 uM after 20 mins. The following applies: liver microsomes.
In series [14] the target is DNA-dependent protein kinase catalytic subunit (Homo sapiens, UniProt P78527). Kind of series: Inhibition of DNA-PK (unknown origin).
Series [15] can be described thus: Solubility of the compound in phosphate buffer at pH 7.4 by HPLC analysis. The following applies: buffer.
The nature of series [16]: Clearance in nude rat at 3 mg/kg, iv. In kind it is ADME, organism-based. Further details: dose 3 mg/kg, route intravenous. The settings on record: in vivo.
For series [17], the target named is T2, Phosphatidylinositol 4,5-bisphosphate 3-kinase catalytic subunit beta isoform. The series can be described thus: Inhibition of N-terminal ploy-His-tagged human PI3Kbeta expressed in baculovirus-infected sf21 cells using PI(4,5)P2 as substrate after 15 mins by HTRF assay.
Target sequence in this assay (P42338 whole entry, canonical isoform): as the sequence (P42338 whole entry, looked up, canonical isoform) above
Series [18] can be described thus: AUC (infinity) in Balb/c mouse plasma at 100 mg/kg, po by LC-MS/MS analysis. It is filed as ADME, organism-based. Set-up: time infinity, dose 100 mg/kg, route oral.
The nature of series [19]: Cmax in Balb/c mouse plasma at 100 mg/kg, po by LC-MS/MS analysis. In kind it is ADME, organism-based. Set-up: dose 100 mg/kg, route oral.
Series [20] is described as follows: Tmax in Beagle dog at 10 mg/kg, po. In kind it is ADME, organism-based, Canis lupus familiaris. The settings on record: in vivo. Set-up: dose 10 mg/kg, route oral.
Series [21] in a line: Half life in Beagle dog at 3 mg/kg, iv. In kind it is ADME, organism-based, Canis lupus familiaris. Set-up: dose 3 mg/kg, route intravenous. The settings on record: in vivo.
A short description of series [22]: Half life in Beagle dog at 10 mg/kg, po. In kind it is ADME, organism-based, Canis lupus familiaris. Further details: dose 10 mg/kg, route oral. The settings on record: in vivo.

For orientation: fraction remaining means the share of the starting amount still present when the sample was taken. Low values mean more turnover, high ones less turnover. By EC50 is commonly meant the concentration at which the effect is half-maximal. For orientation: IC50 means the midpoint of a concentration-inhibition curve. Lower therefore signals higher potency. As a reminder, the AUC(0-inf) is total exposure, with the tail of the curve extrapolated. In general, T/C refers to the ratio of treated to control. The term bioavailability denotes the share of a dose that reaches the circulation, judged against a reference dose that is usually intravenous. Low values mean poor availability, high ones good availability. Usually IC90 stands for the point of the concentration-response curve where the effect stands at 90%. The low end stands for greater potency, the high end for weaker potency. In general, solubility refers to how much of the substance goes into solution per volume. High values mean a readily soluble substance, low ones a poorly soluble substance. One may read the clearance as the rate of elimination divided by the concentration. In general, Cmax refers to the peak of the concentration-time curve. Usually Tmax stands for the time from dosing to the highest level. For orientation: half-life means the time needed for the level to fall by half in the phase considered. For the compound `C[C@H]1Cc2ccccc2N1C(=O)Cc1nc(N2CCOCC2)cc(=O)[nH]1` [SAR-260301], the fraction remaining at 20 min, 5 µM in series [1] was determined as 19%; in series [13], 12%. For the same compound, the concentration at 24 h in series [2] was 76 nM. In addition, in [3], the half-maximal effective concentration (EC50) was found to be 4.55 µM. Also, the half-maximal inhibitory concentration (IC50) in series [4] worked out at 10 µM; in series [7], 3.81 µM; in series [14], 2 µM; in [17], 0.023 µM. Moreover, the AUC(0-inf) in series [5] worked out at 6580 ng·h/mL; in series [6], 14000 ng·h/mL; in series [18] it was 11000 ng·h/mL. Also, the Stability in series [8] is given as 5%. The T/C in [9] is reported as 61%. The compound also gave a concentration at 16 h in series [10] of 26 nM. Further, in [11], the bioavailability was determined as 70%. Also, the 90% effect level in [12] (IC90) was put at 2 µM. Also, the solubility in [15] was 928 µM (≈ 329 µg/mL). The compound also had a clearance in series [16] of 56.7 mL/min/kg. The same compound yielded a maximum concentration (Cmax) in series [19] of 8960 ng/mL. Further, the Tmax in series [20] was found to be 0.5 h. Besides, the results for the half-life in series [21] and in [22] were over 5 h and 4.5 h, respectively.
